Assay results from publication PMC11134331, “Cell-active small molecule inhibitors validate the SNM1A DNA repair nuclease as a cancer target” (Chemical Science, 2024).
Like-named read-outs stand apart in the source and are kept apart here.

Experiments:
[1] = tested on: γH2AX and EGFP-SNM1A foci in U2OS cells; assay: microscopic analysis of damage-induced subnuclear foci, U2OS cells expressing EGFP-SNM1A; type: cell-based, human
Description: To this end, cells stably expressing N-terminally EGFP-tagged SNM1A (EGFP-SNM1A) were treated with 50 μM cisplatin alone, 19 (50 μM), or with a combination of both compounds. It is known that on treatment of cells with DNA crosslinking agents, SNM1A forms subnuclear foci that are associated with ongoing sites of DNA repair.[37] […] As previously established, cisplatin treatment efficiently induces co-localisation of EGFP-SNM1A foci and γH2AX foci within 4 hours following treatment, marking sites of cisplatin damage and its repair (Fig. 6C–E). These largely resolved 24 hours post-treatment, again consistent with previous studies.[16,37] Co-treatment of cells with 19 and cisplatin saw a robust induction of SNM1A foci, consistent with the SNM1A activity being dispensable for its localisation to sites of crosslink repair, and γH2AX foci formation (Fig. 6C–E). […] This clear persistence of repair intermediates and trapping of EGFP-SNM1A at the sites of these repair intermediate implies that 19 engages with SNM1A in a cellular context, delaying the completion of cisplatin crosslink repair, which, in turn, results in the sensitisation of cells to cisplatin.
To assess the number of nuclear foci following cisplatin/inhibitor treatments, cells were plated in glass bottom dishes (as above) and allowed to attach. Following treatment, cells were fixed with 4% (v/v) formaldehyde in PBS, blocked with immunofluoresence (IF) blocking buffer (5% horse serum, 1% saponin in PBS) for 1 h, then incubated with primary antibodies at the desired concentrations in IF blocking buffer (overnight, 4 °C). After washing cells three times with PBS, cells were incubated with secondary antibodies for 2–4 hours in IF blocking buffer, washed a further 3 times with PBS then stained with Hoechst 333 258 (1 μg mL^−1 in PBS) for 30 minutes before a further three washes (all washes and incubations were performed at room temperature, unless otherwise stated).
Confocal images were obtained with a Plan APO 63X 1.40NA oil immersion objective, a pinhole setting of 1 AU, bandpass emission settings of 410–468 nm for Hoechst, 490–544 nm for EGFP, 579–624 nm for RFP or Alexa 568, and 633–695 nm for Alexa 647, a projected pixel dimension of around 110 nm × 110 nm, a pixel dwell time of 1.35 μs, and with a line averaging setting of 2. In order to ensure sufficient cell numbers (N > 300), images were acquired in a tiled 5 × 5 format corresponding to an image area of about 0.65 mm × 0.65 mm. Images were imported into ImageJ and foci were counted using a macro adjusting for staining levels between experiments. Anti-γH2AX antibodies were a mouse monoclonal (Millipore; JBW301).

[2] = biological target: T1, SNM1A (Homo sapiens, UniProt Q6PJP8); assay: gel-based nuclease assay, SNM1A; type: biochemical; design: DNA encoding for the MBL and β-CASP domains of SNM1A (aa 676–1040) was cloned into the baculovirus transfer vector pFB-LIC-Bse; inferred from vector pFB-LIC-Bse and the IMAC purification; made in house; host or cells: Sf9 insect cells (baculovirus)
T1 sequence (Q6PJP8 676-1040): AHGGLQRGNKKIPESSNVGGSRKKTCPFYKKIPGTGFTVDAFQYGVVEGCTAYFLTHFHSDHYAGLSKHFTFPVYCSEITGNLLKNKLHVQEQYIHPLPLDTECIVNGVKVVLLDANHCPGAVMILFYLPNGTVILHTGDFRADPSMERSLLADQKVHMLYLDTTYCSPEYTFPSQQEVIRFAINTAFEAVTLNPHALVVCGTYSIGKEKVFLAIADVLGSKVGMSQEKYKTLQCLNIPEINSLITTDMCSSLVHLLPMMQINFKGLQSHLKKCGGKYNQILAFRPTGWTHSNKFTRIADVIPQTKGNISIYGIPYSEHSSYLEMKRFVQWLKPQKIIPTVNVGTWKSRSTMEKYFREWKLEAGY
Description: To validate the inhibition of SNM1A, SNM1B, and SNM1C observed in the fluorescence-based screening assays, we then performed gel-based assays using 3′ terminally-labelled oligonucleotide substrates that enable both quantitative and qualitative (visual) assessment of the pattern of inhibition, for a subset of compounds. Importantly, whereas the fluorescence-based assay measures a single hydrolytic event at the substrate terminus, the gel-based nuclease assay informs on the pattern of digestion of the entire 51-mer substrate DNA over time.
Standard exonuclease assays were carried out in a 10 μL final volume containing 20 mM HEPES-KOH, pH 7.5, 50 mM KCl, 0.5 mM TCEP, 10 mM MgCl2, 0.05% (v/v) Triton X-100, 5% (v/v) glycerol, and SNM1 proteins as indicated. Inhibitors were dissolved in DMSO and diluted immediately prior to the reaction in the above buffer. Inhibitors were serially diluted two-fold from 100 μM. The DMSO concentration was kept constant at 0.1% (v/v) in the final reaction mixture. Inhibitors were incubated with the indicated SNM1 enzyme for 10 minutes at room temperature; reactions were initiated by addition of 10 nM DNA substrate and incubated at 37 °C for 20 min. Reactions were quenched by addition of 5 μL stop solution (95% formamide, 10 mM EDTA, 0.25% (v/v) xylene cyanol, 0.25% (v/v) bromophenol blue) and heated at 95 °C for 3 min. Reactions were analysed by 20% denaturing polyacrylamide gel electrophoresis solution of 19 : 1 acrylamide:bis-acrylamide, BioRad and 7 M urea (Sigma Aldrich) in 1 × TBE (Tris-borate EDTA) buffer. Electrophoresis was carried out at 525 V for 75 minutes; gels were subsequently fixed for 60 minutes in a 50% (v/v) methanol, 10% (v/v) acetic acid solution, and dried at 80 °C for two hours under vacuum. Dried gels were exposed to a Kodak Phosphor imager screen and scanned using a Typhoon 9500 instrument (GE Healthcare), scanned images were quantified using ImageJ.

[3] = tested on: RPE-1 cells; assay: clonogenic survival assay, RPE-1 cells; type: cell-based, human
Description: Clonogenic assays were performed in 10 cm tissue culture dishes (for RPE-1 cells, U2OS cells and derived clones). Cells (1000 per dish) were seeded in complete media (10 mL) and allowed to attach overnight, then treated with cisplatin or cisplatin plus inhibitor for the times stated. Following treatments, cells were allowed to grow and form colonies for 10 days. Colonies formed were stained with Coomassie R250 (Sigma) and counted on a COLCount Colony Counter (Oxford Optronix). All experiments represent the mean (±SEM) of at least three biological repeats of duplicate dishes/flasks for each treatment.

SMILES: C[C@H](Nc1nc(NCc2ccco2)nc2ccc(Cl)cc12)C(=O)NO [compound 19]
- EGFP-SNM1A and γH2AX foci on co-treatment with cisplatin ([1]; U2OS EGFP-SNM1A, 50 μM compound + 50 μM cisplatin): persisted at 24 hours
- induction of EGFP-SNM1A and γH2AX foci by compound alone ([1]; U2OS EGFP-SNM1A, 50 μM compound alone): did not induce
- average number of γH2AX foci at 24 hours ([1]; U2OS, cisplatin treated with pretreatment with 50 μM 19): 81.6 ± 1.7 foci
- increase of average γH2AX foci number following pretreatment ([1]; U2OS, cisplatin treated, 24 hours): 4 fold
- inhibition of SNM1A in gel-based assay ([2]; 0.5 nM SNM1A): inhibits each of SNM1A–C
- IC50 ([2]; Suppl. Figure 11C, three independent experiments, read-out: SNM1A IC50 estimated from densitometric analysis of gel based assays): 7.6 µM
- IC50 ([2]; direct quantification of ratio between intact substrate and digestion product, read-out: SNM1A IC50 estimated from gel-based assay): ~8 µM
- effect on cisplatin sensitivity ([3]; RPE-1, 50 μM compound): did not substantially increase
- reduction in survival as single agent ([3]; RPE-1, 50 μM compound): negligible reduction in survival
- toxicity as single agent ([3]; RPE-1, 100 μM compound): mild toxicity
